Test results as given in patent publication US12479847B2 (DANA-FARBER CANCER INSTITUTE, INC., priority 2019, dated 2025).

What was measured:
Assay in all cases: KINOMEscan (ScanMAX) kinase profiling
Format in all cases: binding
[1] = molecular target: T1, panel of 468 kinases (Homo sapiens, UniProt Q8WXR4); conditions: MYO3B; 1 μM; read-out: % control
T1 construct: purchased KINOMEscan (ScanMAX) service
T1 sequence (Q8WXR4 1-1341): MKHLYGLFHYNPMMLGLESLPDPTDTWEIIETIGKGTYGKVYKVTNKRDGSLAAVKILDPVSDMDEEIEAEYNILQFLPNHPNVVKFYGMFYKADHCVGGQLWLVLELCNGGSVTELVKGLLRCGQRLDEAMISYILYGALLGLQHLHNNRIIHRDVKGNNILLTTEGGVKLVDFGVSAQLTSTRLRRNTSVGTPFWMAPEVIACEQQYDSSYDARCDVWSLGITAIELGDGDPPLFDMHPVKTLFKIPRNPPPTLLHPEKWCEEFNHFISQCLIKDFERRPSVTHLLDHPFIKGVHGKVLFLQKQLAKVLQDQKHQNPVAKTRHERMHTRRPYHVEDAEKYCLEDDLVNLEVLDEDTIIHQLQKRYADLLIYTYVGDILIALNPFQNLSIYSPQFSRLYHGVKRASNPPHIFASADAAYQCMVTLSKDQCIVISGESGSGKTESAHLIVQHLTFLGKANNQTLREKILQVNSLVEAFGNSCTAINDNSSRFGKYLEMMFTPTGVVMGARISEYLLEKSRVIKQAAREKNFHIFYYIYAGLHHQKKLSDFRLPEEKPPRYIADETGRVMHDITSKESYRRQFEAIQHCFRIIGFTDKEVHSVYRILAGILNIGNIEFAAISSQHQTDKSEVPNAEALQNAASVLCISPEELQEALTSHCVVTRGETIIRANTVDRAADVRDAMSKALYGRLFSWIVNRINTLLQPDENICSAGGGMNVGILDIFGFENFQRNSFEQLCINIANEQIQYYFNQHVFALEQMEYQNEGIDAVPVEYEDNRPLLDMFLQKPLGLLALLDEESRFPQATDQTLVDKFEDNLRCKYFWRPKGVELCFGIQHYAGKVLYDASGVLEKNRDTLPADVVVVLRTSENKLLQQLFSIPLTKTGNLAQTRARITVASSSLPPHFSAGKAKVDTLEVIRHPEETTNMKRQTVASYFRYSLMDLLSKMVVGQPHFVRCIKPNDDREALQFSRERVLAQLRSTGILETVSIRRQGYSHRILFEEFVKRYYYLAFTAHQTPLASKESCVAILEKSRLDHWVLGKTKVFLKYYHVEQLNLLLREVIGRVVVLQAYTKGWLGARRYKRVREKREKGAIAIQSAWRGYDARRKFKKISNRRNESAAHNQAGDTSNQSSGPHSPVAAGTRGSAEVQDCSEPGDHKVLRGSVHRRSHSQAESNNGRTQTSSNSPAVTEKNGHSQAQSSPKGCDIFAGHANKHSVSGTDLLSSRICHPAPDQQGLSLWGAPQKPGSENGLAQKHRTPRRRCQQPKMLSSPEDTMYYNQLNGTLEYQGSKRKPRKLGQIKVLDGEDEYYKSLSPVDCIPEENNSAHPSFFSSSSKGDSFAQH

[2] = molecular target: T2, panel of 468 kinases (Homo sapiens, UniProt Q9H093); conditions: SNARK; 1 μM; read-out: % control
T2 construct: purchased KINOMEscan (ScanMAX) service
T2 sequence (Q9H093 1-628): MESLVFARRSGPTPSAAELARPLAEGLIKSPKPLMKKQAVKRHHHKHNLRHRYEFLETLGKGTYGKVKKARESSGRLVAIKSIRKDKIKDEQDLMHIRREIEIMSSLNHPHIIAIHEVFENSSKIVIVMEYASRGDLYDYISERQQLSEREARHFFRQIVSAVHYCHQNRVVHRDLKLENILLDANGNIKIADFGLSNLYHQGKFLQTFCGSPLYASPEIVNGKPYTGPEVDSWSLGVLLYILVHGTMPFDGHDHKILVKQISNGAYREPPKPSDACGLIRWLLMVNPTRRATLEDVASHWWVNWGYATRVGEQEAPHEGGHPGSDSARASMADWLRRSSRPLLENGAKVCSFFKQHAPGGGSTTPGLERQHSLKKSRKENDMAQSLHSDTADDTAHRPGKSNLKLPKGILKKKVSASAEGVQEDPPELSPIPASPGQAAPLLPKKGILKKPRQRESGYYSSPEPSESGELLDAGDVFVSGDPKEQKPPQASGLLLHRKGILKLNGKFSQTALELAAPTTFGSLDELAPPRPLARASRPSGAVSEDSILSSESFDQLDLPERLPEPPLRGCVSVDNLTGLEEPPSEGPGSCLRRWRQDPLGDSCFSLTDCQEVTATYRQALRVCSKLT

[3] = molecular target: T3, panel of 468 kinases (Homo sapiens, UniProt Q16620); conditions: TRKB; 1 μM; read-out: % control
T3 construct: purchased KINOMEscan (ScanMAX) service
T3 sequence (Q16620 32-822): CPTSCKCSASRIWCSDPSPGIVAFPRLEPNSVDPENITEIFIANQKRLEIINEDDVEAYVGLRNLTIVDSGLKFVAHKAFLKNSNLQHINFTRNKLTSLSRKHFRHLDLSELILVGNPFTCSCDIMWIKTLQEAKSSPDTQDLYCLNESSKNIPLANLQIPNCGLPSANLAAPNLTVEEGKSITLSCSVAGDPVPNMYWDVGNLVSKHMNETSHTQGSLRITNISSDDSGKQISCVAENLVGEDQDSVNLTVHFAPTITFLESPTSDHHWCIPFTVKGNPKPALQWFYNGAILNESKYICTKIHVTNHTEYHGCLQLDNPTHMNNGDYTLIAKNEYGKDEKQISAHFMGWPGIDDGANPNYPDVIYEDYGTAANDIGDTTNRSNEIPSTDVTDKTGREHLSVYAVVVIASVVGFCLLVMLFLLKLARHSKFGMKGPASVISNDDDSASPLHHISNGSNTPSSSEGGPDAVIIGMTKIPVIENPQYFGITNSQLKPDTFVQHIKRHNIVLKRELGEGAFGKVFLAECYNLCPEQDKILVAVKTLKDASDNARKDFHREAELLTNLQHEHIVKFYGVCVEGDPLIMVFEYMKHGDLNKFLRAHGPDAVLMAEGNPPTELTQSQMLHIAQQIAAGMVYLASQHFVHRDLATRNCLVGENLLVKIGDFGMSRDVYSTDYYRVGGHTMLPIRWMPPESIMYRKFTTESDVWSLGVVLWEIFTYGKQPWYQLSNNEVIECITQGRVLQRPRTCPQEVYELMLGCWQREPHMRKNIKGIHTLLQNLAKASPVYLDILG

[4] = molecular target: T4, panel of 468 kinases (Homo sapiens, UniProt Q92630); conditions: DYRK2; 1 μM; read-out: % control
T4 construct: purchased KINOMEscan (ScanMAX) service
T4 sequence (Q92630 1-601): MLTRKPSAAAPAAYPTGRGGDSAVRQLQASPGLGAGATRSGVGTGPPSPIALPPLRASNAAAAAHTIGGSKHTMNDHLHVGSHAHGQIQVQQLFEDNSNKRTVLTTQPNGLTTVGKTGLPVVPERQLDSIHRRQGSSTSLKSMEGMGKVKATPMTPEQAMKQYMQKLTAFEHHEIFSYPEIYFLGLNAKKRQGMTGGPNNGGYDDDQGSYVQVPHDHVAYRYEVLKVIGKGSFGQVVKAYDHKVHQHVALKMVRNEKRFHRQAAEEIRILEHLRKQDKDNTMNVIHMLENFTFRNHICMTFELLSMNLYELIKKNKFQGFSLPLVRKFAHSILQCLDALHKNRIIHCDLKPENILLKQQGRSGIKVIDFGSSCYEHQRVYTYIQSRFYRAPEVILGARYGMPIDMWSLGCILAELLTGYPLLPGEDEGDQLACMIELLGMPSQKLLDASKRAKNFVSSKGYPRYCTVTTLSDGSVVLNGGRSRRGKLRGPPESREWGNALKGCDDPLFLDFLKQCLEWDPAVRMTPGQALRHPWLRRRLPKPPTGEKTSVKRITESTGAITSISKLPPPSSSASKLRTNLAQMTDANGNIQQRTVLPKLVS

SMILES	remaining binding at 1 µM [1] [%]	remaining binding at 1 µM [2] [%]	remaining binding at 1 µM [3] [%]	remaining binding at 1 µM [4] [%]
CNc1nc(Nc2ccc(S(=O)(=O)N3CCC(N4CCOCC4)CC3)cc2OC)nc2[nH]cc(Cl)c12 [Compound 12, 5-chloro-N2-(2-methoxy-4-((4-morpholinopiperidin-1-yl)sulfonyl)phenyl)-N4-methyl-7H-pyrrolo[2,3-d]pyrimidine-2,4-diamine]	95	75	100	13
CNc1nc(Nc2ccc(C(=O)N3CCC(N4CCOCC4)CC3)c3c2OCO3)nc2[nH]cc(Cl)c12 [Compound 75, (7-((5-chloro-4-(methylamino)-7H-pyrrolo[2,3-d]pyrimidin-2-yl)amino)benzo[d][1,3]dioxol-4-yl)(4-morpholinopiperidin-1-yl)methanone]	100	19	100	14
CNc1nc(Nc2ccc(P3(=O)CCN(C4CCOCC4)CC3)cc2OC)nc2[nH]cc(Cl)c12 [Compound 77, 4-(4-((5-chloro-4-(methylamino)-7H-pyrrolo[2,3-d]pyrimidin-2-yl)amino)-3-methoxyphenyl)-1-(tetrahydro-2H-pyran-4-yl)-1,4-azaphosphinane 4-oxide]	100	70	100	47
